Test results reported in ChEMBL document CHEMBL3045876, “Molecular modeling studies and synthesis of novel quinoxaline derivatives with potential anti-cancer activity as inhibitors of methionine synthase” (Med Chem Res, 2013).

Assays:
[1] = tested on: MCF7; assay: Cytotoxicity against Homo sapiens (human) MCF7 cells after 96 hr by MTT assay; format: functional, cell-based; details: MCF7, 96 h
[2] = tested on: PC-3; assay: Cytotoxicity against Homo sapiens (human) PC3 cells after 96 hr by MTT assay; format: functional, cell-based; details: PC-3, 96 h
[3] = biological target: Methionine synthase (Homo sapiens) (UniProt Q99707); assay: Inhibition of methionine synthase (unknown origin) by cell free assay; design: concentration or dose not given beside the values; details: concentration not given here
Sequence of Methionine synthase (Homo sapiens) (Q99707 whole entry): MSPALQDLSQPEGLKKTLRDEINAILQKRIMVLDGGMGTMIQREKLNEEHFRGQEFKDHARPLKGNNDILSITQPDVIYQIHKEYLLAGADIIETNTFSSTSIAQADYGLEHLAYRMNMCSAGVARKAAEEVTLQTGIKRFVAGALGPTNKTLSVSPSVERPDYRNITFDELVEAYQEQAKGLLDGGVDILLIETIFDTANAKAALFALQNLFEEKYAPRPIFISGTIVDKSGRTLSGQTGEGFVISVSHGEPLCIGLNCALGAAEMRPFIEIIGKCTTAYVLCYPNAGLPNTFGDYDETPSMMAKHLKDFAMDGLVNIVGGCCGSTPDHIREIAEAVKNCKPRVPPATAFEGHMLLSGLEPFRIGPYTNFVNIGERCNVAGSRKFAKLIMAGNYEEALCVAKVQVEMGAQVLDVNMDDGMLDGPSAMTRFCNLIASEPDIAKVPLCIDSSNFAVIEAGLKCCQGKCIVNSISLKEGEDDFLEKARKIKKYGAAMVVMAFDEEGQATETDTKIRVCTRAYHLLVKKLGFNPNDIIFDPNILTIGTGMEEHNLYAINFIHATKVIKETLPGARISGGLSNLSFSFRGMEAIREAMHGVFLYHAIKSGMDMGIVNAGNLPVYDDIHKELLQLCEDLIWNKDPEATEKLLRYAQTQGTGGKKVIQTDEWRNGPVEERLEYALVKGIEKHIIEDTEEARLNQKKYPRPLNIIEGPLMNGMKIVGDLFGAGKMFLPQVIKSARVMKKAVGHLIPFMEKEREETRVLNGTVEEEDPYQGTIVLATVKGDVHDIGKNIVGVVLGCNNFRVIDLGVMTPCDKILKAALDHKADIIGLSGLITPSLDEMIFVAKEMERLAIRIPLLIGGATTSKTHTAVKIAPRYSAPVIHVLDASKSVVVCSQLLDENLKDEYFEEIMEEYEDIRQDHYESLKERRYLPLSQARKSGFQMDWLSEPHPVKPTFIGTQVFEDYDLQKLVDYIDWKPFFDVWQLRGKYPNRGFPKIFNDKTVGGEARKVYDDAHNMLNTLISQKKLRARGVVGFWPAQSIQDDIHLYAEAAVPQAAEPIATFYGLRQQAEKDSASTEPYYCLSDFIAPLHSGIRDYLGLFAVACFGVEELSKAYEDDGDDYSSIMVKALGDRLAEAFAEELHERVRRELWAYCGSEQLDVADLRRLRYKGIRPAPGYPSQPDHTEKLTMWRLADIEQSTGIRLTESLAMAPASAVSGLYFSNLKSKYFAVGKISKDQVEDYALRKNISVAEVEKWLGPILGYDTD

Row | Structure (SMILES) | inhibition [3] | IC50 [1] | IC50 [2]
1 | O=C(O)c1ccc(NCc2cnc3cc([N+](=O)[O-])ccc3n2)cc1 | 89% | 53 µM | 45 µM
2 | CCNC(=O)c1ccc(NCc2cnc3cc([N+](=O)[O-])ccc3n2)cc1 |  | 49 µM | 66 µM
3 | Cc1cccc(NCc2cnc3cc([N+](=O)[O-])ccc3n2)c1 | 45% | 79 µM | 77 µM
4 | CNC(=O)c1ccc(NCc2cnc3cc([N+](=O)[O-])ccc3n2)cc1 |  | 47 µM | 49 µM

Second part, led by results:

Row | inhibition [3] | Structure (SMILES) | IC50 [1] | IC50 [2]
5 | 65.9% | O=[N+]([O-])c1ccc2nc(CNc3ccccc3)cnc2c1 | 61 µM | 56 µM
6 | 65% | Cc1ccc(NCc2cnc3cc([N+](=O)[O-])ccc3n2)cc1 | 68 µM | 57 µM
7 | 55% | O=[N+]([O-])c1ccc2nc(CCl)cnc2c1 | 66 µM | 70 µM
8 | 45% | O=[N+]([O-])c1ccc2nc(CNc3ccc(Cl)cc3)cnc2c1 | 75 µM | 70 µM
